These are literature values, as cited in patent US20060014732A1, “Use of targeted oxidative therapeutic formulation in treatment of burns” (priority 2004, published 2006).

The subject of data set [1] is multiple-drug resistant strain of Staphylococcus aureus. The note with it: growing culture of S. aureus, 8 hours, with or without illumination.
For the next data set, the system named is E. coli. The note with it: increasing concentration of peroxide ex-vivo in rabbit or human blood.
For data set [2], the system named is peroxide-sensitive E. coli. As to conditions: infused into the blood.

Turning to hemin, in data set [1], the “bactericidal effect in culture” value is “moderately bactericidal but light independent”.
As for `CC1=C(CCC(=O)O)c2cc3nc(cc4[nH]c(cc4C)cc4[nH]c(cc1n2)cc4C)C(C)=C3CCC(=O)O` [deuteroporphyrin], the “bactericidal effect in culture” value in data set [1] is listed as “strongly bactericidal only after photosensitization”.
Regarding `OO` [hydrogen peroxide, Hydrogen peroxide], the direct bactericidal activity result in the data set with E. coli was “no evidence of direct bactericidal activity”. Besides, the bactericidal effect entry in data set [2] was “no bactericidal effect”.
